# Values of other authors as cited in patent US9358096B2, “Methods of treatment with drug eluting stents with prolonged local elution profiles with high local concentrations and low systemic concentrations” (Abbott Laboratories, priority 2007, dated 2016).
# Columns and labels:
# [1] = cited from earlier work
# [2] = kidney transplant recipients; usual oral dose of sirolimus of 2 mg per day; cited from earlier work
structure (smiles),measurement,setting,value
CO[C@H]1C[C@@H]2CC[C@@H](C)[C@@](O)(O2)C(=O)C(=O)N2CCCC[C@H]2C(=O)O[C@H]([C@H](C)C[C@@H]2CC[C@@H](O)[C@H](OC)C2)CC(=O)[C@H](C)/C=C(\C)[C@@H](O)[C@@H](OC)C(=O)[C@H](C)C[C@H](C)/C=C/C=C/C=C/1C [sirolimus],"peak concentration of sirolimus, one patient",[1]; after receiving three 80 mm stents configured as stent 1,35.5 ng/mL
same,mean systemic sirolimus concentration,"[1]; patients treated with stent 1, one hour after stenting",20.4 ± 10.0 ng/mL
same,trough concentration,[2],9 ng/mL
